Measurements published in patent US20260364076A1 (Amgen Inc., priority 2022, published 2026).
Read-outs that look alike come from different tables or passages of the source.

Key:
[1] = Drug-drug interaction study with itraconazole (CYP3A4 inhibitor): sotorasib plasma PK in healthy subjects; conditions: human, in vivo, po, 360 mg; for AUC(0-inf): AUCinf (GLSM); for AUC(0-t): AUClast (GLSM)
Procedure: (§1) Safety and tolerability monitoring were performed throughout the study.

[2] = Drug-drug interaction study with rifampin (CYP3A4 inducer): sotorasib plasma PK in healthy subjects; format: in vivo, human; conditions: for Cmax / AUC(0-inf) / AUC(0-t): human, plasma, 960 mg; for AUC(0-inf): read-out: AUCinf (GLSM); for AUC(0-t): read-out: AUClast (GLSM)
Procedure: as §1

[3] = Single-dose PK study in subjects with moderate or severe hepatic impairment compared to healthy subjects; format: in vivo, human
Procedure: (§2) This Example describes an open-label single-dose study of sotorasib that was conducted in healthy subjects and subjects with moderate or severe hepatic impairment (see, Inclusion/Exclusion criteria):
(§3) The primary objective of the study was to evaluate the pharmacokinetics (PK) of a single oral dose of sotorasib administered in subjects with moderate or severe hepatic impairment compared to subjects with normal hepatic function. The secondary objective of the study was to evaluate the safety and tolerability of sotorasib administered in subjects with moderate or severe hepatic impairment compared to subjects with normal hepatic function.
(§4) Subjects meeting eligibility requirements were assigned to 1 of 3 groups: Group 1—Normal function (No impairment, n=6-12); Group 2—Moderate impairment (Child-Pugh Class B, n=6-8); Group 3—Severe impairment (Child-Pugh Class C, n=6-8). The classification is based on Child-Pugh scores as per Figg et al. (1995).
The plasma PK parameters of sotorasib will be calculated using standard noncompartmental methods.
The data from hepatically impaired subjects (Group 2 and 3; tests) and control subjects (normal hepatic function [Group 1]; reference) will be included in the analysis. Geometric mean ratios (Test/Reference) for Cmax and AUC values and associated 90% confidence intervals will be estimated.
Additional parameters may be calculated, and sotorasib metabolites may be analyzed. PK parameters for the metabolites, if calculated, will not be subject to inferential statistical analysis. Specific details will be presented in the Statistical Analysis Plan for this study.

[4] = Safety and tolerability in single-dose hepatic impairment study; format: in vivo, human
Procedure: as §2, §3, §4

KRAS^G12C = conditions: cited from earlier work
[5] = system: extracellular signal-regulated kinase (ERK); conditions: preclinical studies; cited from earlier work
KRAS p.G12C tumors = conditions: mice bearing KRAS p.G12C tumors; cited from earlier work
[6] = system: cells and tumors harboring KRAS G12C mutations; conditions: cited from earlier work
[7] = system: cancer with the KRAS G12C mutation; conditions: cited from earlier work
CYP3A = conditions: hepatic; cited from earlier work
[8] = in vivo; cited from earlier work
[9] = 360 mg sotorasib + 200 mg itraconazole (Test), day 6, healthy subjects
[10] = 360 mg sotorasib alone (Reference), day 1, single oral dose, healthy subjects
[11] = 960 mg sotorasib + 600 mg rifampin on day 3 (Test), single-dose rifampin
[12] = 960 mg sotorasib + 600 mg rifampin on day 18 (Test), multiple daily dosing of rifampin
[13] = 960 mg sotorasib on day 1 (Reference), healthy subjects

C=CC(=O)N1CCN(c2nc(=O)n(-c3c(C)ccnc3C(C)C)c3nc(-c4c(O)cccc4F)c(F)cc23)[C@@H](C)C1 (atropisomer, axis not shown; (M)) [Sotorasib, 6-fluoro-7-(2-fluoro-6-hydroxyphenyl)-(1M)-1-[4-methyl-2-(propan-2-yl)pyridin-3-yl]-4-[(2S)-2-methyl-4-(prop-2-enoyl)piperazin-1-yl]pyrido[2,3-d]pyrimidin-2(1H)-one]
Cmax [1]: 6130 ng/mL
Tmax [1]: 0.51 h
AUC(0-inf) [1, 9]: 31000 ng·h/mL
AUC(0-inf) [1, 10]: 24600 ng·h/mL
AUC(0-t) [1, 9]: 30700 ng·h/mL
AUC(0-t) [1, 10]: 22700 ng·h/mL
Geometric mean exposures, based on AUC and Cmax ([2]; following coadministration with rifampin on days 3 and 18): lower following coadministration with rifampin on days 3 and 18
Cmax [2, 11]: 5340 ng/mL
AUC(0-inf) [2, 11]: 19600 ng·h/mL
AUC(0-t) [2, 11]: 19400 ng·h/mL
Cmax [2, 12]: 4110 ng/mL
AUC(0-inf) [2, 12]: 12400 ng·h/mL
AUC(0-t) [2, 12]: 12300 ng·h/mL
AUC(0-inf) [2, 13]: 25600 ng·h/mL
AUC(0-t) [2, 13]: 25400 ng·h/mL
half-life ([3]; human, in vivo, po, 960 mg, read-out: half-life (t1/2), arithmetic mean): 6.42 to 8.18 h
Tmax ([3]; human, in vivo, po, 960 mg, read-out: median tmax): 1 to 1.47 h
PK and safety profile ([3]; moderate or severe hepatic impairment vs healthy subjects): clinically sufficiently similar to the PK and safety profile of healthy subjects
half-life (t1/2), trend across hepatic function groups ([3]; normal, moderate or severe hepatic impairment, 960 mg sotorasib): no apparent trend related to hepatic impairment
findings in clinical laboratory evaluations, physical examinations, ECGs, and vital signs ([4]; 960 mg sotorasib single dose): no clinically meaningful findings
serious adverse events or treatment-emergent adverse events leading to discontinuation ([4]; 960 mg sotorasib single dose): no serious adverse events or treatment-emergent adverse events leading to discontinuation
adverse event severity ([4]; all adverse events, 960 mg sotorasib): mild in severity
resolution of adverse events ([4]; by end of study): All the adverse events resolved by the end of study
treatment-emergent adverse events considered related to sotorasib ([4]; number of events, 20 subjects, Investigator assessment): 5
treatment-emergent adverse events ([4]; number of events, 20 subjects, single dose 960 mg sotorasib): 9
safety and tolerability ([4]; single doses, normal hepatic function, moderate or severe hepatic impairment): safe and well-tolerated
inhibition of KRAS^G12C (KRAS^G12C): specifically and irreversibly inhibits
inhibition of phosphorylation of ERK [5]: inhibited nearly all detectable phosphorylation
tumor regression (KRAS p.G12C tumors): durable complete tumor regression
growth and regression of cells and tumors [6]: inhibition of growth and regression of cells and tumors harboring KRAS G12C mutations
tumor response ([7]; NSCLC, colorectal, pancreatic, appendiceal, endometrial, unknown primary, ampullary, gastric, small bowel, sinonasal, bile duct cancer, or melanoma): stable disease (SD) or partial response (PR)
disease control rate (95% CI) ([7]; colorectal cancer, 42 patients): 73.8%
disease control rate (95% CI) ([7]; non-small cell lung cancer, 59 patients): 88.1%
disease control rate (95% CI) ([7]; other tumor types, 28 patients): 75.0%
metabolizing enzyme (CYP3A): mainly metabolized by the hepatic enzymes CYP3A
route of elimination [8]: mainly eliminated via the fecal route
